Like-named read-outs stand apart in the source and are kept apart here.
Key:
Format in all cases: cell-based
[1] = target: T1, hGAT1 (Homo sapiens, UniProt P30531); test: [3H]GABA uptake inhibition at hGAT1 stably expressed in CHO Flp-In cells; conditions: 30 nM [3H]GABA, 3 min, CHO Flp-In cells stably expressing hGAT1
T1 construct: expressed in transfected cells
Procedure: (§1) CHO Flp-In and tsA201 cells were cultured at 37 °C in a humidified atmosphere of […] and 5% CO2. As previously described[38],[63], CHO Flp-In cells stably expressing the hGATs were cultured in Ham’s F12 Nutrient Mix supplemented with 10% FBS, 1% P/S and plasmocin (5 µg/mL) under the selection pressure of hygromycin B (200 µg/mL). DMEM with GlutaMAX-I supplemented with 10% FBS and 1% P/S was used as growth medium for the tsA201 cells, which were transfected with DNA constructs using PolyFect according to the manufacturer’s specifications (Qiagen, West Sussex, UK), but with half of the recommended reagent volumes.
(§2) Uptake assays were performed in PDL-coated white 96-well polystyrene cell culture microplates (PerkinElmer, Boston, MA, USA) as previously described[38],[63]. […] Assay buffer was HBSS supplemented with 20 mM HEPES, 1 mM CaCl2 and 1 mM MgCl2, pH 7.4. […] After termination, scintillation liquid (MicroScint-20, PerkinElmer) was added and the radioactivity measured in a TopCount NXT Microplate Scintillation Counter (PerkinElmer).
(§3) Data analysis and statistical evaluation were performed in GraphPad Prism 7.02 (GraphPad Software, San Diego, CA, USA). Concentration-uptake inhibition curves, generated from the radioligand-based uptake assays, were fitted by non-linear regression, using the equation for sigmoidal concentration–response with variable slope: Y = Bottom + (Top–Bottom)/(1 + 10^((logIC50 − X) × HillSlope)), where Y is the response, X is the logarithm of the concentration, Top and Bottom are the plateaus in same units as Y, logIC50 is the concentration giving a response halfway between Bottom and Top, and the HillSlope is the steepness of the curve. For the substrate concentration–response curves generated from the FMP assay, the same equation was used but with logEC50 instead for logIC50. Unless otherwise stated, data are presented as means ± S.E.M. of at least three independent pooled experiments performed in triplicates.

[2] = target: T2, hBGT1 (Homo sapiens, UniProt P48065); conditions: for IC50: 30 nM [3H]GABA, 3 min, CHO Flp-In cells stably expressing hBGT1; for subtype-selectivity for hBGT1 over the other hGATs: estimated from [3H]GABA uptake IC50 values
T2 construct: expressed in transfected cells
T2 sequence (P48065 1-614): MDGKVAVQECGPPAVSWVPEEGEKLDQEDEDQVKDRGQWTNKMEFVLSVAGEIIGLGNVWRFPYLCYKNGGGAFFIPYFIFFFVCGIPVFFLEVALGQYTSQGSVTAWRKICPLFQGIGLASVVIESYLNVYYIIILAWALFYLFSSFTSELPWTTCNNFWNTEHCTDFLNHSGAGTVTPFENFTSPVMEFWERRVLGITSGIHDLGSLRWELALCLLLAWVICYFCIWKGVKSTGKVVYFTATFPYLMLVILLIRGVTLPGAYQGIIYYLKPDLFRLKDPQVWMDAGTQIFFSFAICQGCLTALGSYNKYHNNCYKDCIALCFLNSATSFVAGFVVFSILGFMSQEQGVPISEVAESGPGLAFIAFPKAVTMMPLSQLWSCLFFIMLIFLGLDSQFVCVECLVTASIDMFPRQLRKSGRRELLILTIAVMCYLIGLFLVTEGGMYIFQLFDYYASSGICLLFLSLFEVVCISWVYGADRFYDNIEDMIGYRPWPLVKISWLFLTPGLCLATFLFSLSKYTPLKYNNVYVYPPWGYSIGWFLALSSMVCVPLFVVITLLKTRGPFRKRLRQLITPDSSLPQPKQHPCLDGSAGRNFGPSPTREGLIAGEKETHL
Procedure: as §1, §2, §3

[3] = target: T3, hGAT3 (Homo sapiens, UniProt P48066); test: [3H]GABA uptake inhibition at hGAT3 stably expressed in CHO Flp-In cells; conditions: 30 nM [3H]GABA, 3 min, CHO Flp-In cells stably expressing hGAT3
T3 construct: expressed in transfected cells
T3 sequence (P48066 1-632): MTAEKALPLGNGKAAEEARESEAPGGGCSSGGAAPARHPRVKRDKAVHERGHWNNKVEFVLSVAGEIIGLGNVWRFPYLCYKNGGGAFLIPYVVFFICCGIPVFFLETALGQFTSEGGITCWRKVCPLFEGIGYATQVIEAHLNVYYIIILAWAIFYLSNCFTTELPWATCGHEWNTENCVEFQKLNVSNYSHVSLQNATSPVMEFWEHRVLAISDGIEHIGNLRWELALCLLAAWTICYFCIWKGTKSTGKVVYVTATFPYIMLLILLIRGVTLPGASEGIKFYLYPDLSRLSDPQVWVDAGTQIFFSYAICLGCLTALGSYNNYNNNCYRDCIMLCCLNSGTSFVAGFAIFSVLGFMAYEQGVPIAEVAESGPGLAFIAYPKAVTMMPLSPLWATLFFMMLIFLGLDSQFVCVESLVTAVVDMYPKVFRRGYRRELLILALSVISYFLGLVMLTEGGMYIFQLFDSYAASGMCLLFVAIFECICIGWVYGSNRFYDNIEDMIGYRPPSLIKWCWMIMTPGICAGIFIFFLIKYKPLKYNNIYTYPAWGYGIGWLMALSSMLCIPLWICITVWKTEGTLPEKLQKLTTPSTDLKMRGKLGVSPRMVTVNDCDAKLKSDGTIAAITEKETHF
Procedure: as §1, §2, §3

[4] = target: T2, hBGT1; test: FLIPR Membrane Potential (FMP) assay at hBGT1 stably expressed in CHO Flp-In cells
Procedure: The fluorescence-based FMP assay was performed as previously described, for the functional characterization of the electrogenic transport of substrates via hBGT1. Briefly, CHO Flp-In cells stably expressing hBGT1 or hGAT1 were plated (~ 50,000 cells/well) into black PDL-coated 96-well plates with clear bottom (VWR, Radnor, PA, USA). The next day, the growth medium was removed, and cells were washed once with HBSS assay buffer and FMP Blue Dye (Molecular Devices, Crawley, UK), added, and incubated. Ligands were added via the NOVOStar plate reader (BMG Labtech GmbH, Offenburg, Germany), preheated to 37 °C, approximately 10 min before reading of the cell plate. The fluorescence signals were measured for 33.8 s upon ligand addition using an emission and excitation wavelength of […], respectively. Electrogenic transport of substrates via hBGT1 will lead to an influx of the negatively charged FMP Blue dye that will bind to intracellular proteins and lipids resulting in an increase in the fluorescence signal.
as §3

[5] = target: T4, hGAT2 (Homo sapiens, UniProt Q9NSD5); test: [3H]GABA uptake inhibition at hGAT2 stably expressed in CHO Flp-In cells; conditions: 30 nM [3H]GABA, 3 min, CHO Flp-In cells stably expressing hGAT2
T4 construct: expressed in transfected cells
T4 sequence (Q9NSD5 1-602): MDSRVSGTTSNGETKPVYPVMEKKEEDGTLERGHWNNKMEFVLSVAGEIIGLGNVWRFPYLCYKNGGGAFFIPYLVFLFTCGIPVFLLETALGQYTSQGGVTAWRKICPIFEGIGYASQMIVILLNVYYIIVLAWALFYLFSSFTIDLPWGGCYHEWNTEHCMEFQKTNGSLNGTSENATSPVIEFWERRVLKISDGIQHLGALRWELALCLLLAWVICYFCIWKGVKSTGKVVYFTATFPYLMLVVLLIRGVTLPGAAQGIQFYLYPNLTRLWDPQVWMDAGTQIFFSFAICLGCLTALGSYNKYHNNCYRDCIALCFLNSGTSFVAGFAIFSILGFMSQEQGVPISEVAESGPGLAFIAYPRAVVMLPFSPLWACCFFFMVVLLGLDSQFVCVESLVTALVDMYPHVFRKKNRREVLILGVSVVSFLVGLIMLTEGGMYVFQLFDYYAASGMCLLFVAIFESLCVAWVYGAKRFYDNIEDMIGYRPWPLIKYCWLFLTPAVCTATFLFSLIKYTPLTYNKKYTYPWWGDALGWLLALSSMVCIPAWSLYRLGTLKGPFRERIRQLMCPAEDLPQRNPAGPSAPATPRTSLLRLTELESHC
Procedure: as §1, §2, §3

[6] = target: T5, hBGT1 wt (Homo sapiens, UniProt P48065); test: [3H]GABA uptake inhibition at wt hBGT1 transiently expressed in tsA201 cells; conditions: 30 nM [3H]GABA, tsA201 cells transiently expressing wt hBGT1
T5 construct: expressed in transfected cells; host or cells: tsA201 cells, transient (PolyFect), pcDNA5/FRT vector
T5 sequence (P48065 1-614): T2 sequence (P48065 1-614)

[7] = read-out: pIC50 ± S.E.M. hGAT2 (converted)
[8] = read-out: pIC50 ± S.E.M. hBGT1 (converted)

T1 sequence (P30531 whole entry): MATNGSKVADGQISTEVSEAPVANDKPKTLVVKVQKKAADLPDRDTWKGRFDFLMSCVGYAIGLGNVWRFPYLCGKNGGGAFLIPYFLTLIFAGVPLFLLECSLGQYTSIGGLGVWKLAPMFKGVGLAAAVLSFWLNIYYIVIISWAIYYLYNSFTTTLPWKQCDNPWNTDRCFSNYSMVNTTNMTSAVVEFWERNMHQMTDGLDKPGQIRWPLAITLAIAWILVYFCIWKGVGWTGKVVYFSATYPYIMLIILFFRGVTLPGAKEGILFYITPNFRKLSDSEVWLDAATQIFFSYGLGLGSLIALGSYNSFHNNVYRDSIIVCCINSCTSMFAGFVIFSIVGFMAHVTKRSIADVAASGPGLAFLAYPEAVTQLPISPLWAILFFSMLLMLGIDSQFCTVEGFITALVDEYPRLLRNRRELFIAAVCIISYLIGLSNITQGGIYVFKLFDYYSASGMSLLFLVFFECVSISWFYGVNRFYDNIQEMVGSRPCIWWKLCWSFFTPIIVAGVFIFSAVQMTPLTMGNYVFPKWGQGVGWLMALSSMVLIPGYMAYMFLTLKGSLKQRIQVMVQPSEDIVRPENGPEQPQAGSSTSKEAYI

Row | SMILES | IC50 ([1]; read-out: IC50 hGAT1) | IC50 ([2]; read-out: IC50 hBGT1) | IC50 ([3]; read-out: IC50 hGAT3) | IC50 ([5]; read-out: IC50 hGAT2) | also measured
1 | NC1=NCC(C(=O)O)CN1Cc1ccc(-c2ccccc2)cc1 (stereo not shown) [compound 5] | 1.04 mM | 0.05 mM | 0.396 mM | 0.382 mM | decrease of hBGT1 inhibitory potency compared to ATPCA ([2]; [3H]GABA uptake, CHO Flp-In cells): 20–65 fold; subtype-selectivity for hBGT1 over the other hGATs ([2]; CHO Flp-In cells): at least 7 times; IC50 ([3]; read-out: pIC50 ± S.E.M. hGAT3 (converted)): 0.38 mM; substrate character at hBGT1 in FMP assay ([4]; concentration-dependent increase in fluorescence signal): substrates for hBGT1; Mean Rmax as % of GABA Rmax ± S.E.M. ([4]; hBGT1 stably expressed in CHO Flp-In cells, FMP assay): 73 ± 2.8 % of GABA Rmax; EC50 ([4]; hBGT1 stably expressed in CHO Flp-In cells, three independent experiments): 0.194 mM
2 | CC(C)C1=C(C(=O)O)CNC(N)=N1 [compound 14] | > 1 mM | > 1 mM | > 1 mM | 1.01 mM | IC50 [5, 7]: 0.955 mM
3 | Cc1ccsc1C(=CCCN1CC(C(=O)O)CN=C1N)c1sccc1C (stereo not shown) [compound 8] |  |  |  |  | IC50 ([6]; read-out: IC50 BGT1 wt): 0.621 mM; IC50 ([6]; read-out: pIC50 ± S.E.M. BGT1 wt (converted)): 0.631 mM
4 | CCCC1N=C(N)NCC1C(=O)O (stereo not shown) [compound 16] | > 1 mM | > 1 mM | > 1 mM | 0.601 mM | IC50 [5, 7]: 0.589 mM
5 | O=C(O)C1CN=C(NCCc2ccccc2)NC1 (stereo not shown) [compound 10] | 0.439 mM | > 1 mM | > 1 mM | > 1 mM | IC50 ([1]; read-out: pIC50 ± S.E.M. hGAT1 (converted)): 0.427 mM
6 | C[C@@H]1N=C(N)NC[C@@H]1C(=O)O (relative stereo) [l-15] |  |  |  |  | IC50 [2, 8]: 0.0417 mM
7 | CC(C)C1N=C(N)NCC1C(=O)O (stereo not shown) [compound 17] | > 1 mM | > 1 mM | > 1 mM | > 1 mM | 
8 | CC1=C(C(=O)O)CNC(N)=N1 [compound 12] | > 1 mM | > 1 mM | > 1 mM | > 1 mM | 
9 | NC1=N[C@@H](CCc2ccc(-c3ccccc3)cc2)[C@@H](C(=O)O)CN1 (relative stereo) [l-19] | > 1 mM | > 1 mM | > 1 mM | > 1 mM | 
10 | NC1=NCC(C(=O)O)CN1CCCC(c1ccccc1)c1ccccc1 (stereo not shown) [compound 7] | > 1 mM | > 1 mM | > 1 mM | > 1 mM | 
11 | NC1=NCC(C(=O)O)=CN1Cc1ccccc1 [compound 9] |  |  |  |  | IC50 ([6]; read-out: IC50 BGT1 wt): > 1 mM
12 | C[C@@H]1N=C(N)NC[C@@H]1C(=O)O (single isomer, unassigned) [l-15b] | > 1 mM | 0.442 mM | > 1 mM | > 1 mM | IC50 [2, 8]: 0.417 mM; subtype-selectivity for hBGT1 over the other hGATs ([2]; CHO Flp-In cells): 2–3 times
13 | C[C@H]1N=C(N)NC[C@@H]1C(=O)O (single isomer, unassigned) [u-15b] | > 1 mM | 0.085 mM | > 1 mM | > 1 mM | IC50 [2, 8]: 0.0776 mM; subtype-selectivity for hBGT1 over the other hGATs ([2]; CHO Flp-In cells): at least 12 times
14 | NC1=NCC(C(=O)O)CN1CCC(c1ccccc1)c1ccccc1 (stereo not shown) [compound 6] | > 1 mM | > 1 mM | > 1 mM | > 1 mM | 
15 | C[C@H]1N=C(N)NC[C@@H]1C(=O)O (single isomer, unassigned) [u-15a] | > 1 mM | 0.292 mM | > 1 mM | > 1 mM | IC50 [2, 8]: 0.269 mM; subtype-selectivity for hBGT1 over the other hGATs ([2]; CHO Flp-In cells): 2–3 times
16 | NC1=NC(CCc2ccccc2)C(C(=O)O)CN1 (stereo not drawn) [l-18] | > 1 mM | > 1 mM | > 1 mM | > 1 mM | 
17 | CCCC1=C(C(=O)O)CNC(N)=N1 [compound 13] | > 1 mM | > 1 mM | > 1 mM | 0.53 mM | IC50 [5, 7]: 0.501 mM

From publication PMC7400577 (Scientific Reports, 2020)
